Common to all, as to experiment: Antifungal activity (MIC), US NCCLS Standard Method M27-A, yeasts
Common to all, as to assay type: cell-based

For one assay, the system named is Candida glabrata. To be noted: for MIC: Nakaseomyces glabratus, read-out: MIC (minimal inhibitory concentration for growth). On the procedure:
(§1) The antifungal activity of the compound of the invention was determined according to the US NCCLS Standard Method (M27-A, 1997) against yeasts (Candida, Cryptococcus); and according to the US NCCLS Standard Method (M38-P, 1998) against molds (Aspergillus). The result is expressed in values of MIC (minimal inhibitory concentration for growth, μg/ml) in Table 7.

For the next assay, the system named is Saccharomyces cerevisiae. To be noted: for MIC: read-out: MIC (minimal inhibitory concentration for growth). As to the method:
as §1

A further assay relates to Candida krusei. As to conditions: for MIC: Pichia kudriavzevii, read-out: MIC (minimal inhibitory concentration for growth). As to the method:
as §1

Values after ≈ are worked out from the molar mass of the structure shown.

Regarding `Cc1c(-c2ccccc2)c(N2CC[C@H](N(C)C)C2)n2c(nc3ccccc32)c1C#N.O=CO` [Example 6], the “MIC (minimal inhibitory concentration for growth)” value against Candida glabrata was under 0.063 mg/L; in the assay with Saccharomyces cerevisiae it was under 0.063 mg/L; against Candida krusei, 0.5 mg/L.

On to `CCc1c(C)c(C#N)c2nc3ccccc3n2c1C1=CC(N)CC1` (stereo not drawn) [Example 95, 1-(3-Amino-1-cyclopenten-1-yl)-2-ethyl-3-methylpyrido[1,2-a]benzimidazole-4-carbonitrile], for which the figures for the MIC in the assay with Candida glabrata, in the assay with Saccharomyces cerevisiae and in the assay with Candida krusei were 32 mg/L (≈ 101 µM), 16 mg/L (≈ 50.6 µM) and 64 mg/L (≈ 202 µM), respectively.

Consider `Cc1c(CCO)c(N2CC[C@H](N(C)C)C2)n2c(nc3ccccc32)c1C#N` [Example 66, 1-[(3S)-dimethylaminopyrrolidin-1-yl]-2-(2-hydroxyethyl)-3-methylpyrido[1,2-a]benzimidazole-4-carbonitrile], for which the “MIC (minimal inhibitory concentration for growth)” value was 32 mg/L with Candida glabrata, 16 mg/L against Saccharomyces cerevisiae and 16 mg/L in the assay with Candida krusei.

`CCc1c(C)c(C#N)c2nc3ccccc3n2c1NCCN(CC)CC` [Example 1, 1-(2-N′,N′-Diethylaminoethylamino)-2-ethyl-3-methylpyrido[1,2-a]benzimidazole-4-carbonitrile]: the “MIC (minimal inhibitory concentration for growth)” value with Candida glabrata is 2 mg/L; with Saccharomyces cerevisiae, 16 mg/L; against Candida krusei it was 8 mg/L.

`CCCCCCc1c(C)c(C#N)c2nc3ccccc3n2c1N1CC(CN(C)C)C1` [Example 11, 2-n-Hexyl-1-[3-(dimethylaminomethyl)azetidin-1-yl]-3-methylpyrido[1,2-a]benzimidazole-4-carbonitrile]: the MIC in the assay with Candida glabrata was found to be 16 mg/L (≈ 39.6 µM); in the assay with Saccharomyces cerevisiae, 2 mg/L (≈ 4.96 µM); with Candida krusei it was 32 mg/L (≈ 79.3 µM).

Take `Cc1c(Cc2cccc(N)c2)c(N2CC[C@H](N(C)C)C2)n2c(nc3ccccc32)c1C#N` [Example 60, 2-(3-Aminobenzyl)-1-[(3S)-dimethylaminopyrrolidinyl]-3-methylpyrido[1,2-a]benzimidazole-4-carbonitrile]: the “MIC (minimal inhibitory concentration for growth)” value against Candida glabrata is 16 mg/L; against Saccharomyces cerevisiae, 64 mg/L; against Candida krusei, over 128 mg/L.

Take `Cc1c(C(C)C)c(N2CC[C@H](N(C)C)C2)n2c(nc3ccccc32)c1C#N` [Example 87, 2-Isopropyl-1-[(3S)-dimethylaminopyrrolidin-1-yl]-3-methylpyrido[1,2-a]benzimidazole-4-carbonitrile]: the “MIC (minimal inhibitory concentration for growth)” value against Candida glabrata is 1 mg/L; against Saccharomyces cerevisiae, 2 mg/L; in the assay on Candida krusei it was 8 mg/L.

In the case of `CCCCCCc1c(C)c(C#N)c2nc3ccccc3n2c1N1CCCN(C)CC1` [Example 12, 2-n-Hexyl-1-(4-methylhomopiperazin-1-yl)-3-methylpyrido[1,2-a]benzimidazole-4-carbonitrile], the MIC with Candida glabrata is 128 mg/L (≈ 317 µM); in the assay on Saccharomyces cerevisiae, over 32 mg/L; in the assay on Candida krusei, over 128 mg/L.
